Data published in patent publication US8785459B2, “Quinazoline compounds as kinase inhibitors” (Development Center for Biotechnology, priority 2011, dated 2014).

Tests used:
[1] = target: FLT3 kinase (Homo sapiens (Human), UniProt P36888); experiment: FLT3 kinase assay; assay type: biochemical
Experimental: Inhibition of FLT3 kinase activity by compounds disclosed herein was quantified by measuring the amount of [^33P] incorporated into the substrate in the presence of a test compound. Briefly, a reaction mixture of 25 μL final volume containing 5 ng of Flt3 kinase (obtained by purifying recombinant N-terminal 6×His-tagged Flt3 kinase domain construct expressed from baculovirus), 5 μg of the substrate (Poly(Glu-Tyr, 4:1, Sigma)), kinase reaction buffer (20 mM MOPS pH 7.0, 1 mM EDTA, 5% glycerol, 0.01% Brij-35, 0.1% β-mercaptoethanol, 1 mg/mL BSA, 100 μM ATP, 0.1 μCi per well [^33P]-γ-ATP (2,500-3,000 Ci/mmol)), and a test compound (100 nM, diluted with 4% DMSO) or DMSO (as the control) was incubated at 30° C. for 30 minutes. The reaction was stopped by adding 5 μL of 3% phosphoric acid solution. The resultant reaction solution was then harvested onto a filter plate (UniFilter-96 GF/B, PerkinElmer), washed 20 times for 5 min with d.d. H2O, and followed by the addition of 30 μL of MicroScint™-20 Cocktail (PerkinElmer). The plate was then sealed and counted using a TopCount™ scintillation detector (PerkinElmer). IC50 value is defined as the concentration of the test compound which achieves a half-maximal inhibition of the kinase activity.

[2] = target: Cdk1 kinase (Homo sapiens (Human), UniProt P06493); experiment: CDK1 kinase assay; assay type: biochemical
Experimental: Inhibition of Cdk1 kinase activity by compounds disclosed herein was quantified by measuring the amount of [^33P] incorporated into the substrate in the presence of a test compound. Briefly, a reaction mixture of 25 μL final volume containing 5 ng of Cdk1 kinase (Cdk1 kinase domain alone, Millipore), 3 μg of the substrate [Histone H1], kinase reaction buffer (10 mM MOPS pH 7.0, 0.3 mM EDTA, 0.5% glycerol, 0.001% Brij-35, 0.1 mg/ml BSA, 10 μM ATP, 0.1 μCi per well [^33P]-γ-ATP (2,500-3,000 Ci/mmol)), and a test compound (100 nM, diluted with 4% DMSO) or DMSO (as the control) was incubated at 30° C. for 30 minutes. The reaction was stopped by adding 5 μL of 3% phosphoric acid solution. The resultant reaction solution was then harvested onto a filter plate (UniFilter-96 GF/B, PerkinElmer), washed 20 times for 5 min with d.d. H2O, and followed by the addition of 30 μL of MicroScint™-20 Cocktail (PerkinElmer). The radioactivity retained on the filter membrane was measured by TopCount™ scintillation detector (PerkinElmer). The results were analyzed by using linear regression software (GraphPad Prism™ 4; GraphPad Software Inc.).

[3] = tested on: A549; experiment: Anti-proliferative activity, CellTiter-96 assay, A549; assay type: cell-based; conditions: Homo sapiens, A549 cells, 72 hours incubation
How it was run: (§1)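 Cells in DMEM with 10% FCS at 37° C., 5% CO2, plated at 2000 cells/well for 24 h, then exposed to graded compound concentrations for 72 h. CellTiter-96 Aqueous One reagent added for 4.0 h; viability read as absorbance at 490 nm.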

[4] = target: VEGFR2 kinase (Homo sapiens (Human), UniProt P35968); experiment: VEGFR2 kinase assay; assay type: biochemical
Experimental: Inhibition of VEGFR2 kinase activity by compounds disclosed herein was quantified by measuring the amount of [^33P] incorporated into the substrate in the presence of a test compound. […] The reaction was then stopped by adding 5 μL of 3% phosphoric acid solution. The resultant solution was transferred to and harvested by a filter plate (UniFilter-96 GF/B, PerkinElmer). The filter plate was then washed 20 times with d.d. H2O for 5 min followed by the addition of 30 μL of MicroScint™-20 Cocktail (PerkinElmer). After the plate was sealed, the retained radioactivity on the filter was counted using a TopCount™ scintillation detector (PerkinElmer). […]

[5] = target: B-Raf (V600E) (Homo sapiens (Human), UniProt P15056, V600E); experiment: Raf kinase assay (B-Raf (V600E)), [33P] incorporation into MEK1(K97R); assay type: biochemical
How it was run: (§2)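 [33P] transfer to kinase-dead MEK1(K97R) substrate (500 ng) measured after 30 min at 30 °C in Tris pH 7.5 buffer containing 8 μM ATP. Enzyme inputs were 2 ng for C-Raf and 5 ng for B-Raf and B-Raf V600E. Duplicate 3-fold serial dilutions gave the half-maximal inhibitory concentration.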

[6] = tested on: A375; experiment: Anti-proliferative activity, CellTiter-96 assay, A375; assay type: cell-based; conditions: Homo sapiens, A-375, A375 cells, 72 hours incubation
How it was run: as §1

[7] = target: C-Raf (Homo sapiens (Human), UniProt P04049); experiment: Raf kinase assay (C-Raf), [33P] incorporation into MEK1(K97R); assay type: biochemical
How it was run: as §2

B-Raf (V600E), sequence (P15056 whole entry V600E): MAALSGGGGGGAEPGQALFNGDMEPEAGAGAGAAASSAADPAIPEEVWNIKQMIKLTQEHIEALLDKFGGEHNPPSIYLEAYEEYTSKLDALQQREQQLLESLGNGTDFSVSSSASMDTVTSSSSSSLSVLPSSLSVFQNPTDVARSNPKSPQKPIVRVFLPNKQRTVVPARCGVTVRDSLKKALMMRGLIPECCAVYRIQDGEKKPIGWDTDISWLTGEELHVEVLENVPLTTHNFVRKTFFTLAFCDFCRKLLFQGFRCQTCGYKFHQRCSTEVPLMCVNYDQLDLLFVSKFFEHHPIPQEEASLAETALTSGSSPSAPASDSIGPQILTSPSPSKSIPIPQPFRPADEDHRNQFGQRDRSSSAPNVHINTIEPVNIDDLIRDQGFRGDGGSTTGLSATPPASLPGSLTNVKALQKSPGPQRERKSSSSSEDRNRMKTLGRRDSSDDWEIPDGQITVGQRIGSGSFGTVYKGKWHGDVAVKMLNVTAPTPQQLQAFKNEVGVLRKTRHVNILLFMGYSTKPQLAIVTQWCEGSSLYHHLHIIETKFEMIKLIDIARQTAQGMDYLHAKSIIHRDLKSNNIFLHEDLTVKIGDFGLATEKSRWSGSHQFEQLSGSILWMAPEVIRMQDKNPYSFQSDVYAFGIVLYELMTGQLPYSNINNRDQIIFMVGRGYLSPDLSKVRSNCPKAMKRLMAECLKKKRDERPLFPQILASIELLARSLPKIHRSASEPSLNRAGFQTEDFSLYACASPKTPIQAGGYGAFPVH
VEGFR2 kinase, sequence (P35968 834-1162): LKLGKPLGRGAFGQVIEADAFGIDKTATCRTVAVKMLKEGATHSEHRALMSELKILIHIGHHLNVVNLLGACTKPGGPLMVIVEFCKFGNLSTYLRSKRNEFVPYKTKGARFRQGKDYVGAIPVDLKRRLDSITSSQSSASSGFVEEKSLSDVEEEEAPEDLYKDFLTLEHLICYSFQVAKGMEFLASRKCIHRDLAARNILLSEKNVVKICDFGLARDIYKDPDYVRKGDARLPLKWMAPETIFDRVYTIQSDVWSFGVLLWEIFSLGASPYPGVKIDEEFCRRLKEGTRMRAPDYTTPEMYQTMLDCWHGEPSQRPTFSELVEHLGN
Cdk1 kinase, sequence (P06493 4-287): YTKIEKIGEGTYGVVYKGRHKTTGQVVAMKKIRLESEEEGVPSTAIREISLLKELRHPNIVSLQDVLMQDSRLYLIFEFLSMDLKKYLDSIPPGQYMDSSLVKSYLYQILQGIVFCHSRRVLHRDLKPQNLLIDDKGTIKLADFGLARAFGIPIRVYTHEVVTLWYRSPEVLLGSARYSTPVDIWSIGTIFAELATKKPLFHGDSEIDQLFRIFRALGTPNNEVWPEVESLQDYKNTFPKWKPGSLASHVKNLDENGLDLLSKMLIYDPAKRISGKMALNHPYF
Cdk1 kinase, sequence (P14635 whole entry partner, the tested form may be a part): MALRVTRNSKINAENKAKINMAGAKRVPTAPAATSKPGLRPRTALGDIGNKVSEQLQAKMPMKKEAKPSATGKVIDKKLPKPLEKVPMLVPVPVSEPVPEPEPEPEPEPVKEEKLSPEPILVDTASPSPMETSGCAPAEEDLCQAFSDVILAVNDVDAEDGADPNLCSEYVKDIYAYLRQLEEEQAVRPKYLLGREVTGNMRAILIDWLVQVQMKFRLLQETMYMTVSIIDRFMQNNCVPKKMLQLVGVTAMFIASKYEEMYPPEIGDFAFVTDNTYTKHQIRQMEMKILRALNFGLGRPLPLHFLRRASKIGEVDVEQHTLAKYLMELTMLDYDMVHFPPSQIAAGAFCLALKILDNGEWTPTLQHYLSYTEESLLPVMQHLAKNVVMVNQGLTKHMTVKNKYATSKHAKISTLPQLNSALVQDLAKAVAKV
C-Raf, sequence (P04049 whole entry): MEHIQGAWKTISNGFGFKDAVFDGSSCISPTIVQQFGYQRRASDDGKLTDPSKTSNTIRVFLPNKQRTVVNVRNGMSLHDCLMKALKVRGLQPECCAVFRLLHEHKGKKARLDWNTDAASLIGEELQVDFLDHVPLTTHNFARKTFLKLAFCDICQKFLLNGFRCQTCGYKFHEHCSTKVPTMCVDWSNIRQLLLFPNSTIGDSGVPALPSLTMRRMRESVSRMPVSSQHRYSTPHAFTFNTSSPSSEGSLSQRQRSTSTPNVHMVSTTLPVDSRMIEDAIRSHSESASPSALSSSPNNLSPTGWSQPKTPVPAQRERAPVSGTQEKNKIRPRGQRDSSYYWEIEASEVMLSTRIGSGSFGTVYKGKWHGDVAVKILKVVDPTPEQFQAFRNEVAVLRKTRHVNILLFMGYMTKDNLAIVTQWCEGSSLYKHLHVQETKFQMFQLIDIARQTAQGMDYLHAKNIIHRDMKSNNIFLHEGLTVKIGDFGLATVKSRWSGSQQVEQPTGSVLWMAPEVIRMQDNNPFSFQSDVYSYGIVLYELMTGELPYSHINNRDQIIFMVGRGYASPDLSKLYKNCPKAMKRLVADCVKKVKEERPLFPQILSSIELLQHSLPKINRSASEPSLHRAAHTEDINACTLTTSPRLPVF
FLT3 kinase, sequence (P36888 610-943): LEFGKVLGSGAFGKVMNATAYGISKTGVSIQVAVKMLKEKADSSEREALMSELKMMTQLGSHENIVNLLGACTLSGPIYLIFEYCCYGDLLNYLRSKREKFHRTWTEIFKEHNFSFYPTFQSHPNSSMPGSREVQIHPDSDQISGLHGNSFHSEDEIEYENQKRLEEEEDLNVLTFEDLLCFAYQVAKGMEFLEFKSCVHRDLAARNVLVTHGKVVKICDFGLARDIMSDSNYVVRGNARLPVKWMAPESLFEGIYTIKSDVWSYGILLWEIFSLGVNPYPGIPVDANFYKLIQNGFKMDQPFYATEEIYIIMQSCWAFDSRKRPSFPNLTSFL

| IC50 [1] [nM] | inhibition at 1 µM [2] [%] | IC50 [3] [nM] | IC50 [4] [nM] | IC50 [5] [nM] | IC50 [6] [nM] | IC50 [7] [nM] | SMILES |
| --- | --- | --- | --- | --- | --- | --- | --- |
| 271 | 88 | 1100 ± 100 | 139 | 37.4 | 900 ± 200 | 255 | COc1cc(-c2ccc3ncnc(Nc4cccc(O)c4)c3c2)ccc1O [Compound 8, 4-(4-(3-hydroxyphenylamino)quinazolin-6-yl)-2-methoxyphenol] |
| 137 | 78 | 500 ± 200 | 23.5 | 23.2 | 500 ± 100 | 170 | COc1cc(-c2ccc3ncnc(Nc4cc(O)ccc4F)c3c2)ccc1O [Compound 58, 4-(4-(2-fluoro-5-hydroxyphenylamino)quinazolin-6-yl)-2-methoxyphenol] |
